Experimental data taken from PubChem BioAssay (NCI).
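Cells were grown in 96-well plates and exposed to each compound for 48 hours at five concentrations; endpoints were interpolated linearly between bracketing concentrations, or set to the highest concentration if not reached. The concentration for 50% growth inhibition is given as GI50. TGI is the concentration that stops growth completely.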

Columns and labels:
Test in all cases: NCI-60 cell line screen, 48 h
[1] = test system: KM12 colon
[2] = test system: HOP-62 NSCLC
[3] = test system: SF-539 CNS
[4] = test system: NCI-H460 lung
[5] = test system: 786-0 renal
[6] = test system: OVCAR-4 ovarian
[7] = test system: LOX IMVI melanoma
[8] = test system: RPMI-8226 leukemia
[9] = test system: MDA-MB-231 breast
[10] = test system: SR leukemia

| Structure (SMILES) | GI50 [1] | TGI [1] | GI50 [2] | TGI [2] | GI50 [3] | TGI [3] | GI50 [4] | TGI [4] | GI50 [5] | TGI [5] | GI50 [6] | TGI [6] | GI50 [7] | TGI [7] | GI50 [8] | TGI [8] | GI50 [9] | TGI [9] | GI50 [10] | TGI [10] |
| --- | --- | --- | --- | --- | --- | --- | --- | --- | --- | --- | --- | --- | --- | --- | --- | --- | --- | --- | --- | --- |
| CCCN(CCSSCCNc1nc(N(C)O)nc(N(C)O)n1)c1nc(N(C)O)nc(N(C)O)n1 | 6.25 µM | > 100 µM | 4.49 µM | > 100 µM | 4.05 µM | > 100 µM | 3.87 µM | > 100 µM | 3.67 µM | > 100 µM | 3.29 µM | > 100 µM | 6.63 µM | > 100 µM | 4.48 µM | > 100 µM | 18.5 µM | > 100 µM | 2.71 µM | > 100 µM |
| CCSc1nnc(-c2ccc3ccccc3c2O)n1-c1ccc(Cl)cc1 | > 100 µM | > 100 µM | 22.1 µM | > 100 µM | > 100 µM | > 100 µM | 3.27 µM | > 100 µM | 60.3 µM | > 100 µM | 5.71 µM | > 100 µM | 5.52 µM | > 100 µM | 4.83 µM | > 100 µM | > 100 µM | > 100 µM | 3.86 µM | > 100 µM |
| CS(=O)(=O)OCCN(CCOS(C)(=O)=O)c1ccc(C=O)cc1 | – | 29.5 µM | – | 24 µM | – | 17.4 µM | – | 3.36 µM | – | 7.86 µM | – | 37.6 µM | – | 21.1 µM | – | 75.4 µM | – | 67.6 µM | – | 14.7 µM |
| COc1cc(OC)c(C(=O)/C=C/c2cccc(OC(C)=O)c2)cc1CC=C(C)C | 7.16 µM | 14.8 µM | 10.4 µM | 19.6 µM | 8.62 µM | 16.2 µM | 6.57 µM | 17.8 µM | 9.85 µM | 19.8 µM | 5.73 µM | > 50 µM | 6.29 µM | 13.1 µM | 8.94 µM | 33.7 µM | 13.1 µM | > 50 µM | 1.74 µM | 16.1 µM |
| C=CC1=C(C)C2=NC1=CC1=NC(=CC3=C(C)C4=C(O)C(C(=O)OC)C(=C5NC(=C2)C(C)C5CCC(=O)OC)C4=N3)C(CC)=C1C (stereo not given) | – | > 100 µM | – | > 100 µM | – | > 100 µM | – | > 100 µM | – | > 100 µM | – | > 100 µM | – | > 100 µM | – | > 100 µM | – | > 100 µM | – | > 100 µM |
| COC(=O)C1C(OCc2ccccc2)C2CCC1(OC)C=C2C (stereo not given) | – | > 100 µM | – | > 100 µM | – | > 100 µM | – | > 100 µM | – | > 100 µM | – | > 100 µM | – | > 100 µM | – | > 100 µM | – | – | – | 66.6 µM |
| O=c1c2cccnc2ncn1CCN1CCCC1 | – | > 100 µM | – | > 100 µM | – | > 100 µM | – | > 100 µM | – | > 100 µM | – | > 100 µM | – | > 100 µM | – | – | – | – | – | > 100 µM |
| O=c1c2ccccc2nc(-c2cccc(Cl)c2)n1NCC1(O)OCC(O)C(O)C1O (stereo not given) | – | > 100 µM | – | – | – | > 100 µM | – | > 100 µM | – | > 100 µM | – | > 100 µM | – | > 100 µM | – | > 100 µM | – | – | – | > 100 µM |
